What was measured:
Test in all cases: relative viability (nuclei count vs DMSO), 5 days (fraction); higher = more cells survive
Omipalisib + Linsitinib = compound: COc1ncc(-c2ccc3nccc(-c4ccnnc4)c3c2)cc1NS(=O)(=O)c1ccc(F)cc1F [Omipalisib] + C[C@]1(O)C[C@@H](c2nc(-c3ccc4ccc(-c5ccccc5)nc4c3)c3c(N)nccn32)C1 [Linsitinib] (partner 1 µM)
Method in brief: (§1)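 Each reported value is a median over duplicate plates. It expresses relative viability: treated-well nuclei count divided by vehicle-well nuclei count. Lung cancer cell lines in 1536-well plates were dosed by pin tool a day after seeding, alone with one drug or with a fixed anchor-drug dose plus five library-drug doses (not always all listed) in √10 steps, and nuclei were counted after 5 days.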

Omipalisib + Olaparib = compound: COc1ncc(-c2ccc3nccc(-c4ccnnc4)c3c2)cc1NS(=O)(=O)c1ccc(F)cc1F [Omipalisib] + O=C(c1cc(Cc2n[nH]c(=O)c3ccccc23)ccc1F)N1CCN(C(=O)C2CC2)CC1 [Olaparib] (partner 8 µM)
Method in brief: as §1

Omipalisib + Foretinib = compound: COc1ncc(-c2ccc3nccc(-c4ccnnc4)c3c2)cc1NS(=O)(=O)c1ccc(F)cc1F [Omipalisib] + COc1cc2c(Oc3ccc(NC(=O)C4(C(=O)Nc5ccc(F)cc5)CC4)cc3F)ccnc2cc1OCCCN1CCOCC1 [Foretinib] (partner 0.25 µM)
Method in brief: as §1

Omipalisib + Pictilisib = compound: COc1ncc(-c2ccc3nccc(-c4ccnnc4)c3c2)cc1NS(=O)(=O)c1ccc(F)cc1F [Omipalisib] + CS(=O)(=O)N1CCN(Cc2cc3nc(-c4cccc5[nH]ncc45)nc(N4CCOCC4)c3s2)CC1 [Pictilisib] (partner 1 µM)
Method in brief: as §1

Omipalisib + Alpelisib = compound: COc1ncc(-c2ccc3nccc(-c4ccnnc4)c3c2)cc1NS(=O)(=O)c1ccc(F)cc1F [Omipalisib] + Cc1nc(NC(=O)N2CCC[C@H]2C(N)=O)sc1-c1ccnc(C(C)(C)C(F)(F)F)c1 [Alpelisib] (partner 2 µM)
Method in brief: as §1

Omipalisib + Bortezomib = compound: COc1ncc(-c2ccc3nccc(-c4ccnnc4)c3c2)cc1NS(=O)(=O)c1ccc(F)cc1F [Omipalisib] + CC(C)C[C@H](NC(=O)[C@H](Cc1ccccc1)NC(=O)c1cnccn1)B(O)O [Bortezomib] (partner 0.002 µM)
Method in brief: as §1

Omipalisib + Lapatinib = compound: COc1ncc(-c2ccc3nccc(-c4ccnnc4)c3c2)cc1NS(=O)(=O)c1ccc(F)cc1F [Omipalisib] + CS(=O)(=O)CCNCc1ccc(-c2ccc3ncnc(Nc4ccc(OCc5cccc(F)c5)c(Cl)c4)c3c2)o1 [Lapatinib] (partner 2 µM)
Method in brief: as §1

Omipalisib + Crizotinib = compound: COc1ncc(-c2ccc3nccc(-c4ccnnc4)c3c2)cc1NS(=O)(=O)c1ccc(F)cc1F [Omipalisib] + C[C@@H](Oc1cc(-c2cnn(C3CCNCC3)c2)cnc1N)c1c(Cl)ccc(F)c1Cl [Crizotinib] (partner 1 µM)
Method in brief: as §1

Omipalisib + Navitoclax = compound: COc1ncc(-c2ccc3nccc(-c4ccnnc4)c3c2)cc1NS(=O)(=O)c1ccc(F)cc1F [Omipalisib] + CC1(C)CCC(c2ccc(Cl)cc2)=C(CN2CCN(c3ccc(C(=O)NS(=O)(=O)c4ccc(N[C@H](CCN5CCOCC5)CSc5ccccc5)c(S(=O)(=O)C(F)(F)F)c4)cc3)CC2)C1 [Navitoclax] (partner 0.5 µM)
Method in brief: as §1

Omipalisib = compound: COc1ncc(-c2ccc3nccc(-c4ccnnc4)c3c2)cc1NS(=O)(=O)c1ccc(F)cc1F [Omipalisib]
Method in brief: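 Vehicle-anchored 1536-well plates of lung cancer cell lines, held overnight at 37 °C, were pinned with five library-drug doses (not always all listed) spaced by √10. No medium change followed over the next 5 days, after which the cells were fixed, permeabilised and Hoechst-stained together and imaged at 4×. Nuclei were counted with MetaXpress, and viability is treated-well nuclei over vehicle-well nuclei, taken as a median across plates. Plates passed with control CV below 25% and at least one doubling.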

**Q.** For Calu-6, which relative viability (Omipalisib + Linsitinib; first compound 0.0003 µM) is on record?
**A.** Its relative viability is 0.842.

**Q.** What about the relative viability (Omipalisib + Linsitinib; first compound 0.003 µM) of the same cell line?
**A.** Its relative viability is 0.931.

**Q.** And the relative viability (Omipalisib + Linsitinib; first compound 0.03 µM)?
**A.** Its relative viability is 0.815.

**Q.** What about the relative viability (Omipalisib + Olaparib; first compound 0.0003 µM) of the same cell line?
**A.** The relative viability was 0.658.

**Q.** And the relative viability (Omipalisib + Olaparib; first compound 0.003 µM)?
**A.** Its relative viability is 0.625.

**Q.** And the relative viability (Omipalisib + Olaparib; first compound 0.03 µM)?
**A.** Its relative viability is 0.542.

**Q.** And the relative viability (Omipalisib + Foretinib; first compound 0.0003 µM)?
**A.** The relative viability was 0.894.

**Q.** What about the relative viability (Omipalisib + Foretinib; first compound 0.003 µM) of the same cell line?
**A.** The relative viability was 0.844.

**Q.** And the relative viability (Omipalisib + Foretinib; first compound 0.03 µM)?
**A.** Its relative viability is 0.754.

**Q.** And the relative viability (Omipalisib + Pictilisib; first compound 0.0003 µM)?
**A.** Its relative viability is 0.996.

**Q.** What about the relative viability (Omipalisib + Pictilisib; first compound 0.003 µM) of the same cell line?
**A.** Its relative viability is 0.879.

**Q.** What about the relative viability (Omipalisib + Pictilisib; first compound 0.03 µM) of the same cell line?
**A.** The relative viability was 0.775.

**Q.** And the relative viability (Omipalisib + Alpelisib; first compound 0.0003 µM)?
**A.** Its relative viability is 0.889.

**Q.** What about the relative viability (Omipalisib + Alpelisib; first compound 0.003 µM) of the same cell line?
**A.** The relative viability was 0.864.

**Q.** And the relative viability (Omipalisib + Alpelisib; first compound 0.03 µM)?
**A.** The relative viability was 0.755.

**Q.** What about the relative viability (Omipalisib + Bortezomib; first compound 0.0003 µM) of the same cell line?
**A.** The relative viability was 0.982.

**Q.** What about the relative viability (Omipalisib + Bortezomib; first compound 0.003 µM) of the same cell line?
**A.** Its relative viability is 0.951.

**Q.** What about the relative viability (Omipalisib + Bortezomib; first compound 0.03 µM) of the same cell line?
**A.** The relative viability was 0.865.

**Q.** And the relative viability (Omipalisib + Lapatinib; first compound 0.0003 µM)?
**A.** Its relative viability is 1.05.

**Q.** And the relative viability (Omipalisib + Lapatinib; first compound 0.003 µM)?
**A.** Its relative viability is 1.

**Q.** And the relative viability (Omipalisib + Lapatinib; first compound 0.03 µM)?
**A.** The relative viability was 0.795.

**Q.** What about the relative viability (Omipalisib + Crizotinib; first compound 0.0003 µM) of the same cell line?
**A.** The relative viability was 0.904.

**Q.** What about the relative viability (Omipalisib + Crizotinib; first compound 0.003 µM) of the same cell line?
**A.** The relative viability was 0.813.

**Q.** What about the relative viability (Omipalisib + Crizotinib; first compound 0.03 µM) of the same cell line?
**A.** Its relative viability is 0.681.

**Q.** What about the relative viability (Omipalisib + Navitoclax; first compound 0.0003 µM) of the same cell line?
**A.** The relative viability was 0.882.

**Q.** And the relative viability (Omipalisib + Navitoclax; first compound 0.003 µM)?
**A.** Its relative viability is 0.848.

**Q.** And the relative viability (Omipalisib + Navitoclax; first compound 0.03 µM)?
**A.** The relative viability was 0.452.

**Q.** And the relative viability (Omipalisib; 0.0003 µM)?
**A.** Its relative viability is 1.09.

**Q.** And the relative viability (Omipalisib; 0.003 µM)?
**A.** Its relative viability is 0.986.

**Q.** What about the relative viability (Omipalisib; 0.03 µM) of the same cell line?
**A.** The relative viability was 0.861.

Source: the supplement of paper PMC10307832
